From patent US5593970A, “Heterocyclic anthracycline analogs” (priority 1994, dated 1997) come the findings set out here.

Some test systems named below: SKOV3; T47D; LOX; HT29.
Common to all, as to experiment: Microculture tetrazolium assay
Assay type in all cases: cell-based

For the next test, the system named is SKVLB. The following applies: for VLB/OV3: IC50 ratio SKVLB/SKOV3; for pIC50: SKVLB.
Where [1] appears, read: Homo sapiens, SK-OV-3, SKOV3, read-out: IC50.
[2] abbreviates: Homo sapiens, HT-29, HT29, read-out: IC50.

The structures appear in SMILES notation. pIC50: −log10 of the molar value. Structures can show the parent of a compound that is named as a salt. Where two headings read alike, the source gives them in different places.

The term pIC50 denotes the IC50 on a negative log10 scale, so that one unit is a factor of ten. With `CC(C)C(=O)C1Cc2c(O)c3c(c(O)c2C(O[C@H]2C[C@H](N)[C@H](O)[C@H](C)O2)O1)C(=O)c1ccccc1C3=O` (mixture of isomers) [BCH-2120, (1'S, 1R,3S) and (1'S, 1S ,3R)-isopropyl-[5,12-dihydroxy-6,11-dioxo-1-(2',3',6'-trideoxy-3'-amino-L-lyxohexopyranose)-3,4,6,11-tetrahydroanthraceno-[2,3-c]-pyran-3-yl]-ketone hydrochloride], the negative-log IC50 (pIC50) in the test with SKOV3 (setting [1]) was 6.36; in the test with SKVLB (read-out: IC50) it was 6.40; in the test with T47D (Homo sapiens, read-out: IC50), 6.50; in the test with LOX (read-out: IC50), 6.84; in the test on HT29 (setting [2]), 6.77. Besides, the VLB/OV3 in the test with SKVLB is 0.92.

`C[C@@H]1O[C@@H](OC2OC(CC(=O)C3CC3)CC3=C2C(=O)c2cc4ccccc4c(O)c2C3=O)C[C@H](NC(=O)C(F)(F)F)C1O` (mixture of isomers) [BCH-2133, (1'S,1S,3R) and (1'S,1R,3S)-cyclopropyl-(6-hydroxy-1-((2',3',6'-trideoxy-3'-trifluoroacetamido-4'-hydroxy-L-arabino-hexopyranose)-5,10-dioxo-3,4,5,12-tetrahydronaphto-[2,3-c]pyran-3-yl)methylene)]: the negative-log IC50 (pIC50) with SKOV3 (setting [1]) is 5.15; with SKVLB (read-out: IC50), 5.80; in the test with T47D (Homo sapiens, read-out: IC50) it was 5.44; in the test on LOX (read-out: IC50), 5.60; in the test with HT29 (setting [2]), 5.43. Further, the VLB/OV3 in the test with SKVLB was 0.23.

As to `COC(=O)[C@@H]1CC2=C(C(=O)c3c(cc4ccccc4c3O)C2=O)[C@@H](O)O1` (relative stereo) [BCH-703, Methyl(1,11-dihydroxy-5,12-dioxo-3,4,5,12-tetrahydroanthraceno[2,3-c]pyran-3-yl)formate], the pIC50 in the test with SKOV3 (setting [1]) was 4.61; in the test on SKVLB (read-out: IC50) it was 4.73; in the test with T47D (Homo sapiens, read-out: IC50) it was 4.79; with LOX (read-out: IC50) it was 4.89; in the test with HT29 (setting [2]), 5.13. Moreover, the VLB/OV3 in the test with SKVLB is 0.75.

As for `CC(=O)[C@@H]1CC2=C(C(=O)c3c(cc4ccccc4c3O)C2=O)[C@@H](O)O1` (relative stereo) [BCH-722], the pIC50 was 4.72 in the test with SKOV3 (setting [1]); 4.08 in the test on SKVLB (read-out: IC50); 4.92 with T47D (Homo sapiens, read-out: IC50); 4.36 in the test on LOX (read-out: IC50); 5.15 with HT29 (setting [2]). Also, the VLB/OV3 in the test on SKVLB is 4.32.

With `CO[C@H]1S[C@H](CO)CC2=C1C(=O)c1cc3ccccc3c(O)c1C2=O` (relative stereo) [BCH-725], the negative-log IC50 (pIC50) with SKOV3 (setting [1]) is 5.46; with SKVLB (read-out: IC50), 5.40; in the test with T47D (Homo sapiens, read-out: IC50), 5.34; in the test on LOX (read-out: IC50), 5.71; in the test with HT29 (setting [2]), 5.60. Besides, the VLB/OV3 in the test on SKVLB was determined as 1.15.

Consider `CC[C@@H]1CC2=C(C(=O)c3cc4ccccc4c(O)c3C2=O)[C@@H](O)O1` (relative stereo) [BCH-1162, (trans)-1,6-Dihydroxy-3-ethyl-1,2,3,4-tetrahydro-(2-oxygen) naphtacene-5,12-dione], for which the pIC50 in the test on SKOV3 (setting [1]) is 5.94; in the test with SKVLB (read-out: IC50) it was 5.57; in the test on T47D (Homo sapiens, read-out: IC50), 5.59; with LOX (read-out: IC50), under 4.00; in the test with HT29 (setting [2]) it was 5.38. Moreover, the VLB/OV3 with SKVLB is 2.33.

Regarding `CO[C@H]1S[C@H](C(C)=O)CC2=C1C(=O)c1cc3ccccc3c(O)c1C2=O` (relative stereo) [BCH-1164, Trans-3-aceto-1-methoxy-6-hydroxy-1,2,3,4,5,12-hexahydro-2-(sulfur)naphthacene-5,12-dione], the negative-log IC50 (pIC50) was 5.03 in the test on SKOV3 (setting [1]); 5.04 in the test with SKVLB (read-out: IC50); 4.91 in the test on T47D (Homo sapiens, read-out: IC50); under 4.00 in the test with LOX (read-out: IC50); 5.16 in the test on HT29 (Homo sapiens, HT-29, HT29). Further, the VLB/OV3 in the test with SKVLB was 0.98.

For the molecule `CC[C@@H]1Cc2c(O)c3c(c(O)c2[C@@H](O)O1)C(=O)c1ccccc1C3=O` (relative stereo) [BCH-1174, (trans)-6,11-dioxo-3-ethyl-1,5,12-trihydroxy-3,4,5,12-tetrahydroanthraceno-[2,3-c]-pyran], the pIC50 in the test with SKOV3 (setting [1]) is under 4.00; in the test with SKVLB (read-out: IC50), under 4.00; in the test on T47D (Homo sapiens, read-out: IC50), under 4.00; in the test on LOX (read-out: IC50) it was under 4.00; in the test on HT29 (setting [2]) it was under 4.00.

For `CO[C@H]1O[C@H](C(=O)CP(=O)(OC)OC)CC2=C1C(=O)c1cc3ccccc3c(O)c1C2=O` (relative stereo) [BCH-1650], the pIC50 was 6.10 with SKOV3 (Homo sapiens, SK-OV-3, SKOV3); 6.05 in the test on SKVLB; 5.61 in the test with T47D (Homo sapiens); 6.12 in the test on LOX; 6.20 in the test with HT29 (Homo sapiens, HT-29, HT29). The VLB/OV3 in the test with SKVLB was determined as 1.12.

For `C=COC(=O)NCCCO[C@@H]1O[C@@H](C(C)=O)CC2=C1C(=O)c1cc3ccccc3c(O)c1C2=O` (relative stereo) [BCH-2036], the pIC50 in the test on SKOV3 (setting [1]) is 5.43; with SKVLB (read-out: IC50) it was 4.92; in the test with T47D (Homo sapiens, read-out: IC50), 5.21; in the test on LOX (read-out: IC50), 5.27; in the test with HT29 (setting [2]), 5.47. In addition, the VLB/OV3 in the test with SKVLB was found to be 3.27.

`CC(=O)OCC1(C2CC3=C(C(=O)c4cc5ccccc5c(O)c4C3=O)C(O[C@H]3C[C@H](NC(=O)C(F)(F)F)[C@H](O)[C@H](C)O3)O2)OCCCO1` (single isomer, unassigned) [BCH-747]: the pIC50 was 4.68 in the test on SKOV3 (setting [1]); 4.69 in the test with SKVLB (read-out: IC50); 4.74 in the test on T47D (Homo sapiens, read-out: IC50); 4.73 in the test on LOX (read-out: IC50); 4.82 in the test on HT29 (setting [2]). For the same molecule, the VLB/OV3 in the test on SKVLB is reported as 0.98.

Regarding `CCOC(=O)C1CC2=C(CO1)C(=O)c1c(c(OC(C)=O)c3ccccc3c1OC(C)=O)C2=O` (centres unmarked) [BCH-655, Ethyl[6,11-diacetoxy-B,12-dioxo-3,4,5,12-tetrahydroanthraceno (2,3-c)pyran-3-yl]formate], the pIC50 in the test with SKOV3 (setting [1]) was under 4.00; in the test on SKVLB (read-out: IC50) it was under 4.00; with T47D (Homo sapiens, read-out: IC50), under 4.00; in the test on LOX (read-out: IC50), under 4.00; with HT29 (setting [2]), under 4.00.

With `CCOC(=O)C1CC2=C(CO1)C(=O)c1c(cc3ccccc3c1OC(C)=O)C2=O` (centres unmarked) [BCH-656, Ethyl[11-acetoxy-5,12-dioxo-3,4,5,12-tetrahydro-anthraceno[2,3-c]pyran-3-yl]formate], the pIC50 in the test with SKOV3 (setting [1]) is 4.12; with SKVLB (read-out: IC50), 4.08; in the test with T47D (Homo sapiens, read-out: IC50) it was 4.18; in the test on LOX (read-out: IC50) it was 4.16; in the test on HT29 (setting [2]), 4.06. Also, the VLB/OV3 with SKVLB is reported as 1.08.

Take `CCOC(=O)C1CC2=C(CO1)C(=O)c1cc3ccccc3c(OC(C)=O)c1C2=O` (centres unmarked) [BCH-659, Ethyl(6-acetoxy-5,12-dioxo-3,4,5,12-tetrahydroanthraceno[2,3-c]pyran-3-yl)formate]: the negative logarithm of the IC50 (pIC50) in the test on SKOV3 (setting [1]) was 5.34; with SKVLB (read-out: IC50) it was 5.60; with T47D (Homo sapiens, read-out: IC50) it was 5.42; in the test with LOX (read-out: IC50) it was 5.32; with HT29 (setting [2]), 5.63. Besides, the VLB/OV3 in the test on SKVLB stood at 0.56.

For the molecule `COCOCC(=O)C1CC2=C(CO1)C(=O)c1c(c(OC(C)=O)c3ccccc3c1OC(C)=O)C2=O` (centres unmarked) [BCH-695, 6,11-diacetoxy-3-(2-methoxymethoxy)aceto-1,2,3,4-tetrahydro-(2-oxygen)naphthacene-5,12-dione], the negative-log IC50 (pIC50) in the test with SKOV3 (setting [1]) is 4.51; with SKVLB (read-out: IC50) it was 4.82; with T47D (Homo sapiens, read-out: IC50) it was 4.60; in the test on LOX (read-out: IC50), 4.67; with HT29 (setting [2]) it was 4.94. The VLB/OV3 in the test with SKVLB was 0.49.

With `COCOCC(=O)C1CC2=C(CO1)C(=O)c1cc3ccccc3c(O)c1C2=O` (centres unmarked) [BCH-697, 3-(2-methoxymethoxy)aceto-6-hydroxy-1,2,3,4-tetrahydro-(2-oxygen)napthacene-5,12-dione], the pIC50 with SKOV3 (setting [1]) is 4.81; in the test on SKVLB, 4.97; in the test with T47D (Homo sapiens, read-out: IC50), 4.89; with LOX (read-out: IC50) it was 4.90; in the test with HT29 (setting [2]) it was 5.22. Further, the VLB/OV3 in the test with SKVLB is 0.68.

For the molecule `C=CC1CC2=C(C(=O)c3cc4ccccc4c(OC(C)=O)c3C2=O)C(OC)O1` (centres unmarked) [BCH-716, 6-acetoxy-1-methoxy-1,2,3,4-tetrahydro-3-vinyl-(2-oxygen)naphthacene-5,12-dione], the negative-log IC50 (pIC50) in the test on SKOV3 (setting [1]) was under 4.00; with SKVLB (read-out: IC50), 4.07; with T47D (Homo sapiens, read-out: IC50), 4.15; with LOX (read-out: IC50), 4.38; in the test on HT29 (setting [2]) it was under 4.00.

With `CC(=O)[C@H]1CC2=C(C(=O)c3cc4ccccc4c(O)c3C2=O)[C@H](O[C@H]2C[C@H](NC(=O)C(F)(F)F)[C@H](O)[C@H](C)O2)O1` [BCH-724, (1S',1S,3R)-Methyl-(6-hydroxy-1-(3'-trifluoroacyldaunosamine)-5,12-dioxo-3,4,5,12-tetrahydroanthraceno[2,3-C]pyran-3-yl) ketone], the negative logarithm of the IC50 (pIC50) is 5.50 in the test on SKOV3 (setting [1]); 5.79 in the test on SKVLB (read-out: IC50); 5.41 in the test on T47D (Homo sapiens, read-out: IC50); 5.83 in the test with LOX (read-out: IC50); 6.14 in the test on HT29 (setting [2]). For the same molecule, in the test with SKVLB, the VLB/OV3 is 0.52.

For the molecule `COCOCC(=O)C1CC2=C(C(=O)c3cc4ccccc4c(O)c3C2=O)C(O[C@H]2C[C@H](NC(=O)C(F)(F)F)[C@H](OC(=O)c3ccc([N+](=O)[O-])cc3)[C@H](C)O2)O1` (some centres unmarked) [BCH-732], the negative logarithm of the IC50 (pIC50) in the test with SKOV3 (setting [1]) is 4.41; in the test on SKVLB (read-out: IC50), 4.00; in the test on T47D (Homo sapiens, read-out: IC50), 4.00; in the test on LOX (read-out: IC50), 4.32; with HT29 (setting [2]), 4.42.

As for `CC(=O)OCC1(C2CC3=C(C(=O)c4c(cc5ccccc5c4OC(C)=O)C3=O)C(O)O2)OCCCO1` (centres unmarked) [BCH-733], the negative logarithm of the IC50 (pIC50) in the test with SKOV3 (SKOV3, read-out: IC50) was 5.37; in the test with SKVLB (read-out: IC50), 5.16; in the test with T47D (read-out: IC50), 5.26; in the test with LOX (read-out: IC50) it was 5.22; with HT29 (HT29, read-out: IC50), 5.70. For the same molecule, the VLB/OV3 in the test on SKVLB came to 1.62.

For `CC(=O)OCC1(C2CC3=C(C(=O)c4cc5ccccc5c(OC(C)=O)c4C3=O)C(O)O2)OCCCO1` (centres unmarked) [BCH-734], the pIC50 was 5.05 in the test on SKOV3 (SKOV3, read-out: IC50); 5.05 in the test on SKVLB (read-out: IC50); 5.19 in the test with T47D (read-out: IC50); 5.01 in the test with LOX (read-out: IC50); 5.24 in the test on HT29 (HT29, read-out: IC50). Moreover, the VLB/OV3 in the test with SKVLB came out at 1.02.
